US8192962B2, “Processes for detecting toxic substances” (Daikin Industries, Ltd., priority 2001, dated 2012)

System: Metabolism protein genes
Assay: DNA chip mRNA expression in yeast, metabolism protein genes (Table 7)
Format: cell-based, Saccharomyces cerevisiae S288C
In short: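 Ratios compare mRNA levels in stressed and control S. cerevisiae. Each toxicant was applied for two hours to log-phase cultures at 25° C. at a sub-lethal, growth-inhibiting level; fluorescent cDNA (Cy3- or Cy5-dUTP) was hybridized to a genome-wide yeast chip for over 12 h at 65° C.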

For `S=C([S-])NCCNC(=S)[S-].[Zn+2]` [(11), zinc N,N′-ethylenebis(dithiocarbamate)], the “The level of expressed mRNA in the presence of chemical substance/The level of expressed mRNA in the absence of chemical substance” value (yeast gene YAL012W) was 4.0, the “The level of expressed mRNA in the presence of chemical substance/The level of expressed mRNA in the absence of chemical substance” value (yeast gene YAL038W) was 1.0 and the “level of expressed mRNA in the presence/in the absence of chemical substance” value (yeast gene YBR003W) was 1.3. The “level of expressed mRNA in the presence/in the absence of chemical substance” value (yeast gene YBR011C) was 1.7, the “level of expressed mRNA in the presence/in the absence of chemical substance” value (yeast gene YBR020W) was 1.0 and the “The level of expressed mRNA in the presence of chemical substance/The level of expressed mRNA in the absence of chemical substance” value (yeast gene YBR023C) was 0.9. For the same molecule, the “The level of expressed mRNA in the presence of chemical substance/The level of expressed mRNA in the absence of chemical substance” value (yeast gene YBR029C) was 0.7, the “The level of expressed mRNA in the presence of chemical substance/The level of expressed mRNA in the absence of chemical substance” value (yeast gene YBR183W) was 1.9 and the “The level of expressed mRNA in the presence of chemical substance/The level of expressed mRNA in the absence of chemical substance” value (yeast gene YBR222C) was 1.3. The “The level of expressed mRNA in the presence of chemical substance/The level of expressed mRNA in the absence of chemical substance” value (yeast gene YBR256C) was 3.2, the “The level of expressed mRNA in the presence of chemical substance/The level of expressed mRNA in the absence of chemical substance” value (yeast gene YCL009C) was 1.5 and the “The level of expressed mRNA in the presence of chemical substance/The level of expressed mRNA in the absence of chemical substance” value (yeast gene YCL064C) was 1.8. The “level of expressed mRNA in the presence/in the absence of chemical substance” value (yeast gene YCR010C) was 1.1, the “level of expressed mRNA in the presence/in the absence of chemical substance” value (yeast gene YCR034W) was 0.8 and the “The level of expressed mRNA in the presence of chemical substance/The level of expressed mRNA in the absence of chemical substance” value (yeast gene YCR048W) was 1.2. For the same molecule, the “The level of expressed mRNA in the presence of chemical substance/The level of expressed mRNA in the absence of chemical substance” value (yeast gene YCR098C) was 1.3, the “The level of expressed mRNA in the presence of chemical substance/The level of expressed mRNA in the absence of chemical substance” value (yeast gene YDR019C) was 1.8 and the “level of expressed mRNA in the presence/in the absence of chemical substance” value (yeast gene YDR050C) was 2.0. The “level of expressed mRNA in the presence/in the absence of chemical substance” value (yeast gene YDR073W) was 1.0, the “level of expressed mRNA in the presence/in the absence of chemical substance” value (yeast gene YDR123C) was 0.6 and the “level of expressed mRNA in the presence/in the absence of chemical substance” value (yeast gene YDR178W) was 2.0. The “level of expressed mRNA in the presence/in the absence of chemical substance” value (yeast gene YDR277C) was 1.2, the “level of expressed mRNA in the presence/in the absence of chemical substance” value (yeast gene YDR284C) was 1.3 and the “level of expressed mRNA in the presence/in the absence of chemical substance” value (yeast gene YDR345C) was 1.5. For the same molecule, the “The level of expressed mRNA in the presence of chemical substance/The level of expressed mRNA in the absence of chemical substance” value (yeast gene YDR380W) was 0.4, the “level of expressed mRNA in the presence/in the absence of chemical substance” value (yeast gene YDR400W) was 1.3 and the “level of expressed mRNA in the presence/in the absence of chemical substance” value (yeast gene YDR408C) was 1.7. For the same molecule, the “level of expressed mRNA in the presence/in the absence of chemical substance” value (yeast gene YDR483W) was 1.4, the “The level of expressed mRNA in the presence of chemical substance/The level of expressed mRNA in the absence of chemical substance” value (yeast gene YDR497C) was 0.7 and the “The level of expressed mRNA in the presence of chemical substance/The level of expressed mRNA in the absence of chemical substance” value (yeast gene YDR502C) was 1.3. For the same molecule, the “The level of expressed mRNA in the presence of chemical substance/The level of expressed mRNA in the absence of chemical substance” value (yeast gene YDR516C) was 2.8, the “level of expressed mRNA in the presence/in the absence of chemical substance” value (yeast gene YEL063C) was 0.8 and the “level of expressed mRNA in the presence/in the absence of chemical substance” value (yeast gene YER015W) was 1.0. For the same molecule, the “The level of expressed mRNA in the presence of chemical substance/The level of expressed mRNA in the absence of chemical substance” value (yeast gene YER026C) was 0.9, the “The level of expressed mRNA in the presence of chemical substance/The level of expressed mRNA in the absence of chemical substance” value (yeast gene YER053C) was 2.4 and the “The level of expressed mRNA in the presence of chemical substance/The level of expressed mRNA in the absence of chemical substance” value (yeast gene YER069W) was 1.5. For the same molecule, the “level of expressed mRNA in the presence/in the absence of chemical substance” value (yeast gene YER081W) was 1.1, the “The level of expressed mRNA in the presence of chemical substance/The level of expressed mRNA in the absence of chemical substance” value (yeast gene YER096W) was 1.1 and the “level of expressed mRNA in the presence/in the absence of chemical substance” value (yeast gene YER120W) was 1.1. For the same molecule, the “The level of expressed mRNA in the presence of chemical substance/The level of expressed mRNA in the absence of chemical substance” value (yeast gene YER178W) was 2.5, the “level of expressed mRNA in the presence/in the absence of chemical substance” value (yeast gene YFL011W) was 2.1 and the “The level of expressed mRNA in the presence of chemical substance/The level of expressed mRNA in the absence of chemical substance” value (yeast gene YFL014W) was 5.0. For the same molecule, the “The level of expressed mRNA in the presence of chemical substance/The level of expressed mRNA in the absence of chemical substance” value (yeast gene YFL030W) was 5.4, the “The level of expressed mRNA in the presence of chemical substance/The level of expressed mRNA in the absence of chemical substance” value (yeast gene YFL031W) was 1.2 and the “The level of expressed mRNA in the presence of chemical substance/The level of expressed mRNA in the absence of chemical substance” value (yeast gene YFL056C) was 68.3. The “The level of expressed mRNA in the presence of chemical substance/The level of expressed mRNA in the absence of chemical substance” value (yeast gene YFL057C) was 27.7, the “The level of expressed mRNA in the presence of chemical substance/The level of expressed mRNA in the absence of chemical substance” value (yeast gene YFR015C) was 3.9 and the “The level of expressed mRNA in the presence of chemical substance/The level of expressed mRNA in the absence of chemical substance” value (yeast gene YFR047C) was 2.3. For the same molecule, the “level of expressed mRNA in the presence/in the absence of chemical substance” value (yeast gene YGL012W) was 0.6, the “The level of expressed mRNA in the presence of chemical substance/The level of expressed mRNA in the absence of chemical substance” value (yeast gene YGL022W) was 0.8 and the “level of expressed mRNA in the presence/in the absence of chemical substance” value (yeast gene YGL115W) was 1.0. The “The level of expressed mRNA in the presence of chemical substance/The level of expressed mRNA in the absence of chemical substance” value (yeast gene YGL126W) was 1.0, the “level of expressed mRNA in the presence/in the absence of chemical substance” value (yeast gene YGL205W) was 0.4 and the “The level of expressed mRNA in the presence of chemical substance/The level of expressed mRNA in the absence of chemical substance” value (yeast gene YGL209W) was 0.8. For the same molecule, the “The level of expressed mRNA in the presence of chemical substance/The level of expressed mRNA in the absence of chemical substance” value (yeast gene YGL248W) was 1.0, the “The level of expressed mRNA in the presence of chemical substance/The level of expressed mRNA in the absence of chemical substance” value (yeast gene YGR037C) was 1.4 and the “The level of expressed mRNA in the presence of chemical substance/The level of expressed mRNA in the absence of chemical substance” value (yeast gene YGR055W) was 1.5. For the same molecule, the “level of expressed mRNA in the presence/in the absence of chemical substance” value (yeast gene YGR096W) was 0.8, the “level of expressed mRNA in the presence/in the absence of chemical substance” value (yeast gene YGR191W) was 1.6 and the “The level of expressed mRNA in the presence of chemical substance/The level of expressed mRNA in the absence of chemical substance” value (yeast gene YGR194C) was 0.7. For the same molecule, the “level of expressed mRNA in the presence/in the absence of chemical substance” value (yeast gene YGR204W) was 2.1, the “The level of expressed mRNA in the presence of chemical substance/The level of expressed mRNA in the absence of chemical substance” value (yeast gene YGR256W) was 2.7 and the “The level of expressed mRNA in the presence of chemical substance/The level of expressed mRNA in the absence of chemical substance” value (yeast gene YGR282C) was 1.5. The “level of expressed mRNA in the presence/in the absence of chemical substance” value (yeast gene YGR288W) was 1.3, the “level of expressed mRNA in the presence/in the absence of chemical substance” value (yeast gene YHR025W) was 2.1 and the “The level of expressed mRNA in the presence of chemical substance/The level of expressed mRNA in the absence of chemical substance” value (yeast gene YHR111W) was 1.9. The “level of expressed mRNA in the presence/in the absence of chemical substance” value (yeast gene YHR123W) was 1.2, the “The level of expressed mRNA in the presence of chemical substance/The level of expressed mRNA in the absence of chemical substance” value (yeast gene YHR137W) was 0.6 and the “The level of expressed mRNA in the presence of chemical substance/The level of expressed mRNA in the absence of chemical substance” value (yeast gene YHR174W) was 1.4. The “The level of expressed mRNA in the presence of chemical substance/The level of expressed mRNA in the absence of chemical substance” value (yeast gene YHR176W) was 1.2, the “level of expressed mRNA in the presence/in the absence of chemical substance” value (yeast gene YHR210C) was 1.5 and the “level of expressed mRNA in the presence/in the absence of chemical substance” value (yeast gene YIL006W) was 1.0. For the same molecule, the “The level of expressed mRNA in the presence of chemical substance/The level of expressed mRNA in the absence of chemical substance” value (yeast gene YIL045W) was 1.2, the “The level of expressed mRNA in the presence of chemical substance/The level of expressed mRNA in the absence of chemical substance” value (yeast gene YIL107C) was 0.9 and the “The level of expressed mRNA in the presence of chemical substance/The level of expressed mRNA in the absence of chemical substance” value (yeast gene YIL154C) was 1.2. The “The level of expressed mRNA in the presence of chemical substance/The level of expressed mRNA in the absence of chemical substance” value (yeast gene YIL155C) was 1.3, the “The level of expressed mRNA in the presence of chemical substance/The level of expressed mRNA in the absence of chemical substance” value (yeast gene YIL167W) was 1.9 and the “The level of expressed mRNA in the presence of chemical substance/The level of expressed mRNA in the absence of chemical substance” value (yeast gene YIR017C) was 4.2. The “The level of expressed mRNA in the presence of chemical substance/The level of expressed mRNA in the absence of chemical substance” value (yeast gene YIR034C) was 3.0, the “The level of expressed mRNA in the presence of chemical substance/The level of expressed mRNA in the absence of chemical substance” value (yeast gene YIR036C) was 2.8 and the “The level of expressed mRNA in the presence of chemical substance/The level of expressed mRNA in the absence of chemical substance” value (yeast gene YJL031C) was 1.9. For the same molecule, the “The level of expressed mRNA in the presence of chemical substance/The level of expressed mRNA in the absence of chemical substance” value (yeast gene YJL068C) was 3.2, the “The level of expressed mRNA in the presence of chemical substance/The level of expressed mRNA in the absence of chemical substance” value (yeast gene YJL088W) was 0.9 and the “The level of expressed mRNA in the presence of chemical substance/The level of expressed mRNA in the absence of chemical substance” value (yeast gene YJL099W) was 0.9. For the same molecule, the “level of expressed mRNA in the presence/in the absence of chemical substance” value (yeast gene YJL121C) was 1.1, the “level of expressed mRNA in the presence/in the absence of chemical substance” value (yeast gene YJL167W) was 1.2 and the “The level of expressed mRNA in the presence of chemical substance/The level of expressed mRNA in the absence of chemical substance” value (yeast gene YJL172W) was 1.4. The “level of expressed mRNA in the presence/in the absence of chemical substance” value (yeast gene YJL216C) was 1.1, the “The level of expressed mRNA in the presence of chemical substance/The level of expressed mRNA in the absence of chemical substance” value (yeast gene YJL219W) was 2.3 and the “level of expressed mRNA in the presence/in the absence of chemical substance” value (yeast gene YJR077C) was 1.6. For the same molecule, the “The level of expressed mRNA in the presence of chemical substance/The level of expressed mRNA in the absence of chemical substance” value (yeast gene YJR137C) was 2.0, the “level of expressed mRNA in the presence/in the absence of chemical substance” value (yeast gene YJR143C) was 1.3 and the “The level of expressed mRNA in the presence of chemical substance/The level of expressed mRNA in the absence of chemical substance” value (yeast gene YJR148W) was 0.6.
